The results in this text go back to patent publication US20160244411A1, “TAU IMAGING PROBE” (CLINO LTD., priority 2013, published 2016).

The target in data set [1] is AD brain tissue homogenates (Homo sapiens, UniProt P10636). In words: Competitive binding test using [3H]THK-5117 as radio ligand with AD brain tissue homogenates. As to conditions: 2 nM [3H]THK-5117, 100 μg homogenate, 3 hours room temperature. How it is done:
Binding Experiment (1) with AD Brain Tissue Homogenates Competitive Binding Test Using [^3H]THK-5117 as Radio Ligand
PBS (0.1% BSA) was used as an assay buffer, and the concentration of TI-IK-5105S or THK-5105R was adjusted with 2 nM [^3H] THK-5117 to 10^−5 to 10^−10 M in a reaction system (200 μL) containing 100 μg of the homogenates, and the competitive tests were then carried out. A nonspecific binding was measured with 2 μM of THK-5117. After incubation at room temperature for 3 hours, a glass filter plate was used to separate [^3H]THK-5117 bound to the homogenates and unbound [^3H] THK-5117, and the filter plate was washed, and then to the separated filter was added liquid scintillation cocktail, and the bound radioactivity was measured on a liquid scintillation counter. The data was analyzed by analysis software GraphPad Prism (Ver. 5). The competitive tests were carried out similarly on THK-5117S, THK-5117R, THK-5151S, and THK-5151R.

A further data set concerns amyloid β (Aβ). In words: Tissue binding test with 10 AD homogenate samples, correlation with Aβ concentration. Further details: species or system human. Conditions: 1 nM probe, 100 μg tissue, 1 hour incubation. The method, then:
(§1) Binding Experiment (2) with AD Brain Tissue Homogenates Organization Binding Evaluation Experiment of [^18F]THK-5105S
(§2) According to the above-mentioned assay buffer, nonspecific binding measurement, and filter separation operation, using 10 kinds of AD homogenate samples each having different tau concentration and amyloid β (Aβ) concentration, the reaction system was adjusted such that the tissue concentration was made 100 μg and [^18F]THK-5105S concentration was made 1 nM, and the binding test (1 hour incubation) was carried out in the reaction system.
(§3) As comparative example, the binding test was carried out also on [^18F]THK-5105R according to the similar method. The tau concentration or Aβ concentration was plotted on horizontal axis […], and the bound amount of [^18F]THK-5105S and [^18F]THK-5105R was plotted on vertical axis, and the correlation thereof was evaluated.
(§4) This means that when imaging, [^18F]THK-5105S can be detected the change of the tau concentration more sensitively.

Data set [2] is described as follows: Dynamic evaluation of normal mouse brain by small animal PET. It counts as in vivo, ICR mouse. The method, then:
For experiments in small animal PET (evaluation of its brain delivery), Polysorbate 80 was added to the ethanol-eluted fraction, from which the ethanol was removed using an evaporator. The [^18F] THK-5105S containing radioactive residue within the flask was dissolved in physiological saline and the solution prepared was used as a solution for injection.
In this experiment, […] was administered intravenously via tail to ICR mouse (male 6 to 7 weeks old) under isoflurane anesthesia (1.5%), and the time-change of radioactivity distribution in brain was measured on Clairvivopet/CT (manufactured by Shimadzu Corporation, Kyoto). The emission scan was started simultaneously with the administration of the probe, and measured in 3D list mode for 120 min. After imaging, 35 frames (10×60 s, 10×120 s, […]) were reconstructed, and a region of interest was set in the brain, and quantified as SUV, and a time-activity curve (TAC) was created, and the Dynamism of the both probes were compared.
THK-5105R. In order to compare the disappearance change, the peak values of the TAC for both probes were converted into 100%, and the TAC was then shown as FIG. 7B. As evident from the TACs, [^18F]THK-51055 has larger ratio of disappearance per hour than [^18F]THK-5105R, that is, has more rapid rate of disappearance.
THK-5105R, and can therefore detect tau lesion with more excellent selectivity.

A further data set relates to tau. In words: Tissue binding test with 10 AD homogenate samples, correlation with tau concentration. Further details: species or system human. As to conditions: 1 nM probe, 100 μg tissue, 1 hour incubation, in comparison with [18F]THK-5105R. The method, then: as §1, §2, §3, §4
A further data set concerns tau lesion region. In words: Autoradiography of hippocampus sections of an Alzheimer's disease patient. Conditions: AD hippocampus section, about 400 μCi/ml, in comparison with the corresponding R-form. It counts as binding, human. How it is done:
A brain specimen in hippocampus of the patient which was definitively-diagnosed as Alzheimer's disease pathologically was used. A paraffin-embedded brain tissue was sliced by 6 μm or 8 μm thick, and stretched on a glass slide, and dried. The paraffin brain sections were deparaffinized by washing sequentially with xylene 10 min.×2, 100% ethanol 5 min.×2, 90% ethanol 5 min., and flowing water 10 min. After deparaffinization, the sections were immersed in PBS. Each of about 400 μCi/ml of [^18F]THK-5105S and [^18F]THK-5105R was added dropwise to the sections, and the sections were allowed to a reaction at room temperature for 10 min. Thereafter, the sections were immersed in distilled water for 2 min., and successively, shaked lightly in 50% EtOH for 2 min., and thereafter immersed in distilled water for 2 min. again, and dried on paraffin stretching plate. Then, the sections were contacted with imaging plate, and allowed to stand overnight, and on next day, the imaging was read on BAS5000 (manufactured by FUJIFILM Holdings Corporation).
The autoradiography experiments were also carried out similarly on [^18F]THK-5151S and [^18F]THK-5151R.
THK-5105R and [^18F] THK-5151R in tau lesion region, which means that they binds more strongly to tau pathology.

The nature of data set [3]: Dynamic evaluation of normal mouse brain by biodistribution method. It counts as in vivo, ICR mouse. How it is done: A saline comprising [^18F]THK-5105S or [18F]THK-5105R was administered intravenously via tail to ICR mouse (male 6 to 7 weeks old), and the time change of radioactivity distribution in brain was measured on Clairvivopet/CT (manufactured by Shimadzu Corporation, Kyoto). The brain dynamics was evaluated by the time-change of the accumulation rate of radioactivity in brain tissue after 2 min., 10 min., 30 min., 60 min., and 120 min.
The accumulation rate of radioactivity was calculated as the ratio of radioactivity per weight of evaluated tissue against total administered radioactivity (% Injected Dose/g of tissue; % ID/g). The measurement of the radioactivity was carried out with Gamma counter (Accuflex γ7000, measured by Hitachi-Aloka Medical, Tokyo). The experimental procedure was as follows. After administering the label compound intravenously via tail at 2 min., 10 min., 30 min., 60 min., and 120 min., cervical dislocation of mouse was performed under ether anesthesia, and organ tissues were extracted. The radioactivity and the weight of each sample were measured, and the data was analyzed to calculate % ID/g. Also, as the evaluation index for the disappearance from the brain, the divided value of the accumulation rate at 2 min. after administration by the accumulation rate at 60 min. after administration (2 min./60 min. ratio) was calculated.

Data set [4] relates to AD hippocampus tissue homogenate (tau lesion). In words: Saturation binding experiment with AD hippocampus tissue homogenate. Further details: species or system human. As to conditions: 0.1 to 100 nM. The method, then:
Further, according to the above-mentioned assay buffer, nonspecific binding measurement, and filter separation operation, each saturation binding experiment of [^18F]THK-5151S and [^18F]THK-5151R was carried out with AD hippocampus tissue homogenate. Zero point one (0.1) to 100 nM of each tested substance was incubated with hippocampus homogenate, and then filtered with a filter, washed, and then measured radioactivity supplemented by the filter, and thereby calculated as total binding and nonspecific binding at each concentration. The data was analyzed with GraphPad Prism (Ver. 5) to calculate binding dissociation constants Kd and Bmax. The binding curve of the results and the analysis results are shown as FIG. 6c.

The mark [5] stands for this setting: read-out: Ki Entorhinal cortex 601 pmol/g tissue.
[6] abbreviates: read-out: Ki Temporal lobe cortex (607.6 pmol/g tissue).
[7] abbreviates: intravenous via tail, in comparison with [18F]THK-5105R.

The structures appear in SMILES notation. Read-outs that look alike come from different tables or passages of the source.

AD brain tissue homogenates, sequence (P10636 623-695 limits assumed): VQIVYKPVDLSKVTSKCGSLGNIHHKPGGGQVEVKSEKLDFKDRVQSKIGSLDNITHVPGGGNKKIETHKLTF

With `CN(C)c1ccc(-c2ccc3cc(OC[C@@H](O)CF)ccc3n2)cc1` [THK-5105R, reference compound], the Ki in data set [1] (setting [5]) amounted to 27.4 nM; in data set [1] (setting [6]), 16.3 nM.

`CN(C)c1ccc(-c2ccc3cc(OC[C@H](O)CF)ccc3n2)cc1` [THK-5105S]: the Ki in data set [1] (setting [5]) was 4.6 nM; in data set [1] (setting [6]) it was 2.6 nM.

Regarding `CNc1ccc(-c2ccc3cc(OCC(O)CF)ccc3n2)cc1` (centres unmarked) [THK-5117R, reference compound], in data set [1] (setting [6]), the Ki is 25.7 ± 10.7 nM.

For the compound `CNc1ccc(-c2ccc3cc(OC[C@H](O)CF)ccc3n2)cc1` [THK-5117S], the Ki in data set [1] (setting [6]) is 9.4 ± 4.8 nM.

As to `CNc1ccc(-c2ccc3cc(OC[C@H](O)CF)ccc3n2)cn1` [THK-5151S], in data set [1] (setting [6]), the Ki is 7.2 ± 1.27 nM.

For `CN(C)c1ccc(-c2ccc3cc(OCC(O)C[18F])ccc3n2)cc1` (centres unmarked) [[^18F]THK-5105R, reference compound], the “correlation of tissue bound amount with the Aβ concentration” value in the data set on amyloid β (Aβ) is recorded as “could not be found to have a correlation with the Aβ concentration”. Also, in data set [2] (brain, intravenous via tail), the “SUV Ratio 5 min./30 min.” value is listed as 1.92 ± 0.3, the “SUV Ratio 5 min./60 min.” value came out at 3.67 ± 0.9 and the “SUV Ratio 5 min./120 min.” value amounted to 7.75 ± 1.6.

Take `CN(C)c1ccc(-c2ccc3cc(OC[C@H](O)CF)ccc3n2)cc1` [[^18F]THK-5105S]: the “correlation of tissue bound amount with the Aβ concentration” value with amyloid β (Aβ) is “could not be found to have a correlation with the Aβ concentration”. Also, in the data set on tau, the “correlation of tissue bound amount with the tau concentration” value was “extremely higher correlation with the tau concentration” and the tissue bound amount entry is given as “higher bound amount”. For the same compound, in data set [2] (brain, in comparison with [18F]THK-5105R), the “SUV ratios 5 min./30 min., 5 min./60 min., 5 min./120 min. compared between probes” value is given as “significantly higher value”. Besides, in data set [2] (brain, intravenous via tail), the “SUV Ratio 5 min./30 min.” value turned out to be 2.70 ± 0.1, the “SUV Ratio 5 min./60 min.” value was determined as 6.27 ± 0.6 and the “SUV Ratio 5 min./120 min.” value is recorded as 19.2 ± 4.4. Moreover, in data set [2] (setting [7]), the “disappearance from normal brain tissue (time-activity curve)” value is “disappeared more rapidly from normal brain tissue” and the “retention into the normal brain tissue” value was “lower retention into the normal brain tissue”.

Turning to `CN(C)c1ccc(-c2ccc3cc(OC[C@H](O)C[18F])ccc3n2)cc1` [[^18F]THK-5105S], the “autoradiography imaging signal in tau lesion region” value in the data set with tau lesion region is “stronger imaging signal”.

On to `CNc1ccc(-c2ccc3cc(OC[C@H](O)CF)ccc3n2)cn1` [[^18F]THK-5151S], for which the “accumulation rate of radioactivity in brain, 2 min.” value in data set [3] (2 min. after intravenous administration, n = 4) was found to be 4.36 ± 0.19 % ID/g. For the same compound, in data set [3] (10 min. after intravenous administration, n = 4), the “accumulation rate of radioactivity in brain, 10 min.” value came to 1.10 ± 0.19 % ID/g. Moreover, the “accumulation rate of radioactivity in brain, 30 min.” value in data set [3] (30 min. after intravenous administration, n = 4) turned out to be 0.21 ± 0.03 % ID/g. The “accumulation rate of radioactivity in brain, 60 min.” value in data set [3] (60 min. after intravenous administration, n = 4) is 0.13 ± 0.03 % ID/g. Further, the “accumulation rate of radioactivity in brain, 120 min.” value in data set [3] (120 min. after intravenous administration, n = 4) was 0.12 ± 0.02 % ID/g. In addition, in data set [3] (brain accumulation rate at 2 min. divided by that at 60 min.), the “2 min./60 min. ratio” value was found to be 33. For the same compound, the “accumulation rate value after the initial uptake, compared between probes” value in data set [3] (in comparison with [18F]THK-5151R) is reported as “lower values”. Moreover, in data set [3] (shortly after administration), the “brain uptake shortly after administration” value is “about 4 % ID/g”. For the same compound, the “autoradiography imaging signal in tau lesion region” value with tau lesion region was “stronger imaging signal”. For the same compound, in data set [4], the “Bmax/Kd value as bonding potential in comparison with [18F]THK-5151R” value is listed as “about fourth times large Bmax/Kd value” and the “Kd value in comparison with [18F]THK-5151R” value was “about one tenth small Kd value”.
